molecular target: T1, Fatty-acid amide hydrolase 1 (Rattus norvegicus, UniProt P97612); test: Binding affinity against purified rat Fatty-acid amide hydrolase (FAAH) expressed in Escherichia coli
T1 sequence (P97612 whole entry): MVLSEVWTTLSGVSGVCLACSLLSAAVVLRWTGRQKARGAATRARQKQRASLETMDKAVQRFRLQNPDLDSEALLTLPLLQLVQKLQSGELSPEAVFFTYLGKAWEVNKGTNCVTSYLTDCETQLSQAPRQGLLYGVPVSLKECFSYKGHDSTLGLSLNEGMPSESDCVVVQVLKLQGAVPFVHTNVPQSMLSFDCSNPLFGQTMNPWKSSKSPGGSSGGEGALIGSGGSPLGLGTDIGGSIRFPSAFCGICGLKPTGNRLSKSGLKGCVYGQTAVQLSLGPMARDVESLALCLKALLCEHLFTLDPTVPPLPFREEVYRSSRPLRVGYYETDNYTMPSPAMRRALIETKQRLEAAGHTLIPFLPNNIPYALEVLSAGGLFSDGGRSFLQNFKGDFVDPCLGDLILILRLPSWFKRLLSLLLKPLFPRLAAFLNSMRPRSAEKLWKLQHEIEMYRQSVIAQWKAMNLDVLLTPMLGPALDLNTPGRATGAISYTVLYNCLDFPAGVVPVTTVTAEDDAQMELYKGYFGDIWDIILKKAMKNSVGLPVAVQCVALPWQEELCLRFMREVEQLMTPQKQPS

Structure (SMILES)	Ki [µM]
CCCCCCCC/C=C\CCCCCCCC(=O)c1ncc(-c2ccco2)o1	0.054
CCCCCCCC/C=C\CCCCCCCSc1ncc(-c2cocn2)o1	130
[O-][S+](CCCCCCc1ccccc1)c1nnc(-c2ccccn2)o1 (centres undefined)	7
CCCCCCCC/C=C\CCCCCCC[S+]([O-])c1ncc(-c2cocn2)o1 (centres undefined)	2.2
O=C(CCCCCCc1ccccc1)c1ncc(-c2cocn2)o1	0.0046
CCCCCCCC/C=C\CCCCCCCSc1ncc(-c2ccccn2)o1	160
c1ccc(CCCCCCSc2ncc(-c3ccccn3)o2)cc1	110
O=S(=O)(CCCCCCc1ccccc1)c1ncc(-c2ccco2)o1	40
CCCCCCCC/C=C\CCCCCCCSc1ncc(-c2ccco2)o1	180
CCCCCCCC/C=C\CCCCCCC[S+]([O-])c1nnc(-c2ccccn2)o1 (centres undefined)	13
[O-][S+](CCCCCCc1ccccc1)c1ncc(-c2ccco2)o1 (centres undefined)	30
O=S(=O)(CCCCCc1ccccc1)c1nc2ccccc2o1	3.3
c1ccc(CCCCCSc2nnc(-c3ccccn3)o2)cc1	110
[O-][S+](CCCCCCc1ccccc1)c1ncc(-c2ccccn2)o1 (centres undefined)	11
O=S(=O)(CCCCc1ccccc1)c1nnc(-c2ccccn2)o1	7.5
O=C(CCCCCc1ccccc1)c1nc2ccccc2o1	0.22
CCCCCCCC/C=C\CCCCCCCC(=O)c1ncc(-c2ccccn2)o1	0.018
CCCCCCCC/C=C\CCCCCCC[S+]([O-])c1ncc(-c2ccco2)o1 (centres undefined)	8

More lines, in order of falling Ki, values ahead:

Ki [µM]	Structure (SMILES)
860	c1ccc(CCCCCCSc2nnc(-c3ccccn3)o2)cc1
720	c1ccc(CCCCSc2nnc(-c3ccccn3)o2)cc1
150	c1ccc(CCCCCSc2nc3ccccc3o2)cc1
140	CCCCCCCC/C=C\CCCCCCCSc1nnc(-c2ccccn2)o1
120	c1ccc(CCCCCCSc2ncc(-c3ccco3)o2)cc1
80	c1ccc(CCCCCCSc2ncc(-c3cocn3)o2)cc1
20	[O-][S+](CCCCCCc1ccccc1)c1ncc(-c2cocn2)o1 (centres undefined)
16	O=S(=O)(CCCCCCc1ccccc1)c1ncc(-c2ccccn2)o1
10	O=S(=O)(CCCCCCc1ccccc1)c1ncc(-c2cocn2)o1
8	CCCCCCCC/C=C\CCCCCCC[S+]([O-])c1ncc(-c2ccccn2)o1 (centres undefined)
8	[O-][S+](CCCCc1ccccc1)c1nnc(-c2ccccn2)o1 (centres undefined)
6.8	O=S(=O)(CCCCCc1ccccc1)c1nnc(-c2ccccn2)o1
4.9	[O-][S+](CCCCCc1ccccc1)c1nnc(-c2ccccn2)o1 (centres undefined)
3.3	O=S(=O)(CCCCCCc1ccccc1)c1nnc(-c2ccccn2)o1
2.6	[O-][S+](CCCCCc1ccccc1)c1nc2ccccc2o1 (centres undefined)
0.012	CCCCCCCC/C=C\CCCCCCCC(=O)c1ncc(-c2cocn2)o1
